From US8637530B2, “8-(3-amino-piperidin-1-yl)-xanthines, their preparation, and their use as pharmaceuticals” (Boehringer Ingelheim International GmbH, priority 2005, dated 2014)

Experiments:
[1] = Absorption characteristics (water uptake / hygroscopic behaviour as a function of relative humidity); format: physicochemical; settings: for change into a hydrate phase: with rising relative humidity (free base: above 50% r.h.); for hygroscopic characteristics / behaviour: absorption characteristics, FIG. 7 / FIG. 10
[2] = Humidity-dependent X-ray powder images (phase change); format: physicochemical
Protocol: The X-ray powder diagrams, with one exception, were recorded using an STOE Stadi P X-ray powder diffractometer. This diffractometer operates with CuKα1 radiation (gamma=1.5406 Angstroms) and a location-sensitive detector. The X-ray generator was operated at 40 mA and 40 kV.
The X-ray powder diagram of the monohydrate of the free base was recorded with a Bruker D8 Advance X-ray powder diffractometer on which a special air humidity cell made by MRI had been placed. The diagram was recorded at about 72% r.h. The Bruker D8 Advance operates with CuKα radiation (gamma=1.5418 Angstroms) and also a location-sensitive detector. The X-ray generator was operated at 30 mA and 40 kV.

SMILES	water taken up ([1]; above 50% r.h., FIG. 4)	relative humidity up to which the anhydrous form is stable ([1]; anhydrous form, FIG. 4)	reversibility of the conversion into the monohydrate ([1]; relative humidity brought back to 50% or less)	change into a hydrate phase [1]	phase change ([2]; above 80% r.h.)	relative humidity at which water is absorbed ([1]; FIG. 7)	hygroscopic characteristics / behaviour [1]	phase change ([2]; humidity range from 10-90 r.h.)	water uptake over relative humidity ([1]; whole range of relative humidities, FIG. 10)
CC#CCn1c(N2CCC[C@@H](N)C2)nc2c1c(=O)n(Cc1ncccc1C#N)c(=O)n2C [Example 2, 1-[(3-cyano-pyridin-2-yl)methyl]-3-methyl-7-(2-butyn-1-yl)-8-(3-(R)-amino-piperidin-1-yl)-xanthine]	about 4%	up to 50%	totally reversible	changes into a monohydrate					
CC#CCn1c(N2CCC[C@@H](N)C2)nc2c1c(=O)n(Cc1ncccc1C#N)c(=O)n2C.Cl [Example 3, 1-[(3-cyano-pyridin-2-yl)methyl]-3-methyl-7-(2-butyn-1-yl)-8-[(R)-3-amino-piperidin-1-yl]-xanthine monohydrochloride]				no reversible change into a hydrate phase	no phase change	> 80 % r.h.	less marked hygroscopic characteristics		
CC#CCn1c(N2CCC[C@@H](N)C2)nc2c1c(=O)n(Cc1ncccc1C#N)c(=O)n2C.Cl.Cl [Example 4, 1-[(3-cyano-pyridin-2-yl)methyl]-3-methyl-7-(2-butyn-1-yl)-8-[(R)-3-amino-piperidin-1-yl]-xanthine-dihydrochloride]				no reversible change into a hydrate phase			unremarkable hygroscopic behaviour	no phase change	takes up a certain amount of water continuously over the whole range of relative humidities
